Experimental data: ChEMBL document CHEMBL3639364, “Preparation method of dihydroindene amide compounds, their pharmaceutical compositions containing compounds thereof and use as protein kinases inhibitor” (2014)

What was measured:
[1] = molecular target: Platelet-derived growth factor receptor beta (Homo sapiens, UniProt P09619); experiment: (§1) Kinase buffer: 62.5 mM HEPES, pH 7.5; 0.001875% Brij-35; 12.5 mM MgCl2; 2.5 mM DTT. Stop buffer: 100 mM HEPES, pH 7.5; 0.015% Brij-35; 0.2% coating agent 3; 50 mM EDTA. Preparation of kinase solution: Kinase solution was obtained by dissolving kinases in the kinase buffer mentioned above. With regard to c-Kit kinase, the pre-activation treatments should be carried out as follows. 700 nM c-Kit, 2 mM ATP, 4 mM DTT and 10 mM MgCl2 were dissolved in kinase buffer. After being incubated at 28° C. for 15 minutes, the solution was added to the kinase buffer.
[2] = molecular target: Mast/stem cell growth factor receptor Kit (Homo sapiens, UniProt P10721); experiment: as §1
Chain of Mast/stem cell growth factor receptor Kit (P10721 whole entry): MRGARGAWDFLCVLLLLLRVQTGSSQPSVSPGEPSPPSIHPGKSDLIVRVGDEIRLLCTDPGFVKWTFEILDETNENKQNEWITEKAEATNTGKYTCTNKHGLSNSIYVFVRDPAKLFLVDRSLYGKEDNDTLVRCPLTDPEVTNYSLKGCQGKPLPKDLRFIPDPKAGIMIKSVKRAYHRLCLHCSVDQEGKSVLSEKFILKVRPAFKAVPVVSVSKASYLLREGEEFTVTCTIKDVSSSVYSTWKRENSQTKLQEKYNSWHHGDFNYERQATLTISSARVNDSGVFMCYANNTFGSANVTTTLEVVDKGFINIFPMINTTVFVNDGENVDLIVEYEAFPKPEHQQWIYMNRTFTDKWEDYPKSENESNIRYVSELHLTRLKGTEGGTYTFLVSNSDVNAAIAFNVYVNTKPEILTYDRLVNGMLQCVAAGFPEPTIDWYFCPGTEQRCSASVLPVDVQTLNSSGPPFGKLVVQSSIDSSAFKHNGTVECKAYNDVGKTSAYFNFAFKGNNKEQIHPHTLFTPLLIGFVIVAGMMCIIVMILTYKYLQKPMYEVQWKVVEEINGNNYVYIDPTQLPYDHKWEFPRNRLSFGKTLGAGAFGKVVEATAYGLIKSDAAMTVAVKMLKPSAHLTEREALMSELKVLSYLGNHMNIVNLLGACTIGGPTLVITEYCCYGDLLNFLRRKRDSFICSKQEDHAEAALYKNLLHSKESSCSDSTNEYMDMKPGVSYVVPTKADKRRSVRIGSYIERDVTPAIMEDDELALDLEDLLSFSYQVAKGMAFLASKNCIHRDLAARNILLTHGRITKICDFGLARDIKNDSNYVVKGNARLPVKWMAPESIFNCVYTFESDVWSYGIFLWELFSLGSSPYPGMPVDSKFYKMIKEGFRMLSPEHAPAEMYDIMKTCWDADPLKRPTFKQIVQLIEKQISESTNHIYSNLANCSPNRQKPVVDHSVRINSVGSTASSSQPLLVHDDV

Chain of Platelet-derived growth factor receptor beta (P09619 whole entry): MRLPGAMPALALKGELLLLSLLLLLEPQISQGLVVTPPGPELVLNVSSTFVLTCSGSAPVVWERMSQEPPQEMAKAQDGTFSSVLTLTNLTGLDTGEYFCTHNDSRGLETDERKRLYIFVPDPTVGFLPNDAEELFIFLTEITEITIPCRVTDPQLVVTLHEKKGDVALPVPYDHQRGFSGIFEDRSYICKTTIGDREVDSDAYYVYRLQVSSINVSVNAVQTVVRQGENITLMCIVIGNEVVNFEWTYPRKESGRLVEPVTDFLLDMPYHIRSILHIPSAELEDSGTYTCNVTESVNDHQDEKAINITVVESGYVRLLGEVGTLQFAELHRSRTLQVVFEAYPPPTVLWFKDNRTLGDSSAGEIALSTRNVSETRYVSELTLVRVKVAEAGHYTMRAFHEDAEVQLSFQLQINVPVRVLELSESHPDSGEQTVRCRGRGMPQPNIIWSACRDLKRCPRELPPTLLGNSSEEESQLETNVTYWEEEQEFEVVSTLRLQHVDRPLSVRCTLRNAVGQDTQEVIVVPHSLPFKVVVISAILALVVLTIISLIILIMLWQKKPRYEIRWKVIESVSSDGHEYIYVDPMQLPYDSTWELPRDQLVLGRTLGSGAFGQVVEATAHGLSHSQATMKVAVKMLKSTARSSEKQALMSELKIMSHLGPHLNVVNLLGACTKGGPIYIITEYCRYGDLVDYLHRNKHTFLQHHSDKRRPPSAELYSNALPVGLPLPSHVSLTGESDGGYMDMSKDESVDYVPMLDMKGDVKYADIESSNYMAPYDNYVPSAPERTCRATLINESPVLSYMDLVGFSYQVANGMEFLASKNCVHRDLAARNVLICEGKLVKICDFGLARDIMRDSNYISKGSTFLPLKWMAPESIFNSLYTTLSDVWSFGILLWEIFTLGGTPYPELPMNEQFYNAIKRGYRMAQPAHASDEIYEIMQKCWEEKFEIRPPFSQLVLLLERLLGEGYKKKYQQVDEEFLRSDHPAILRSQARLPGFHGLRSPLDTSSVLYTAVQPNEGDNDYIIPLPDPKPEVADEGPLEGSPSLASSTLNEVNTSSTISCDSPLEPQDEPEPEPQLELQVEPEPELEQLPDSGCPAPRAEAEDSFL

IC50 [1] [nM]	IC50 [2] [nM]	Compound
15	26	CCN1CCN(C2CCc3cc(C(=O)Nc4ccc(C)c(Nc5nccc(-c6cccnc6)n5)c4)ccc32)CC1 (centres undefined)
21	32	Cc1ccc(NC(=O)c2ccc3c(c2)CCC3N2CC[C@@H](N(C)C)C2)cc1Nc1nccc(-c2cccnc2)n1 (some centres undefined)
